According to EP0433163A2, “Process for the preparation of imidazobenzodiazepines and their salts” (ROUSSEL-UCLAF, priority 1989, dated 1991):

Columns and labels:
[1] = test system: récepteurs de benzodiazépine; assay: In vivo binding to benzodiazepine receptors, method of Goeders and Kuhar, Life Sciences (1985) 37 345
From the text: La mesure de la fixation in vivo aux récepteurs de benzodiazépine est réalisée selon le procédé décrit par Goeders N.E. and Kuhar M J, Life Sciences (1985) 37 345.

[2] = target: récepteurs de benzodiazépine; assay: Benzodiazepine receptor binding (FRB), method of GB 2 128 989; details: in vitro benzodiazepine receptor binding; type of value not stated; read-out: FRBnM
From the text: La recherche de la fixation aux récepteurs de benzodiazépine (FRB) est réalisée par le procédé décrit dans GB 2 128 989.

Row | Structure (SMILES) | Fixation in vivo DE50 mg/pk ip [1] | IC50 [2]
1 | CCOC(=O)c1ncn2c1CN(C)C(=O)c1cccc(F)c1-2 [EXEMPLE 1D, 5,6-dihydro-10-fluoro-5-méthyl-6-oxo-4H-imidazo [1,5-a] [1,4] benzodiazépine-3-carboxylate d'éthyle] | 21 mg/pk | 410 nM
2 | CCOC(=O)c1ncn2c1CN(C)C(=O)c1cccc(N)c1-2 [EXEMPLE 6, 5,6-dihydro-10-amino-5-méthyl-6-oxo-4H-imidazo [1,5-a] [1,4] benzodiazépine-3-carboxylate d'éthyle] | – | 966 nM
3 | O=C1NCc2c(C(=O)C3CC3)ncn2-c2ccccc21 [EXEMPLE 4, 5,6-dihydro-6-oxo-4H-imidazo [1,5-a] [1,4] benzodiazépine-3-yl-cyclopropylméthanone] | – | 582 nM
4 | CN1Cc2c(C(=O)C3CC3)ncn2-c2cccc(C(F)(F)F)c2C1=O [EXEMPLE 3C, 5,6-dihydro-5-méthyl-6-oxo-7-trifluorométhyl-4H-imidazo [1,5-a] [1,4] benzodiazépine-3-yl-cyclopropylméthanone] | 0,05 mg/pk | 9.4 nM
5 | CN1Cc2c(C(=O)C3CC3)ncn2-c2cccc(F)c2C1=O [EXEMPLE 3D, 5,6-dihydro-7-fluoro-5-méthyl-6-oxo-4H-imidazo [1,5-a] [1,4] benzodiazépine-3-yl-cyclopropylméthanone] | – | 27 nM
6 | CN1Cc2c(C(=O)C3CC3)ncn2-c2cccc(Cl)c2C1=O [EXEMPLE 3B, 7-chloro-5,6-dihydro-5-méthyl-6-oxo-4H-imidazo [1,5-a] [1,4] benzodiazépine-3-yl-cyclopropylméthanone] | – | 7.7 nM
7 | CCOC(OCC)c1ncn2c1CN(C)C(=O)c1c(Cl)cccc1-2 [EXEMPLE 5, 7-chloro-3-diethoxyméthyl-5,6-dihydro-5-méthyl-4H-imidazo [1,5-a] [1,4] benzodiazépine-6(4H)-one] | 2,1 mg/pk | 339 nM
8 | CCOC(=O)c1ncn2c1CN(C)C(=O)c1c(F)c(F)c(F)c(F)c1-2 [EXEMPLE 1G, 5,6-dihydro-5-méthyl-6-oxo-7,8,9,10-tétrafluoro-4H-imidazo [1,5-a] [1,4] benzodiazépine-3-carboxylate d'éthyle] | 100 mg/pk | 7500 nM
9 | CCOC(=O)c1ncn2c1CN(C)C(=O)c1c(F)ccc(F)c1-2 [EXEMPLE 1E, 7,10-difluoro-5,6-dihydro-5-méthyl-6-oxo-4H-imidazo [1,5-a] [1,4] benzodiazépine-3-carboxylate d'éthyle] | 1,1 mg/pk | 174 nM
